Measured values from US7994402B2, “Method of increasing plant organ and seed size in a plant” (Monsanto Technology LLC, priority 2002, dated 2011).

Target: T1, A. thaliana protein molecule SEQ ID NO: 4 (His-tagged, from pMON63134) (Arabidopsis thaliana, UniProt Q9ZW18)
T1 construct: His-tag (N); made in house; host or cells: E. coli (pET-28b vector, plasmid pMON63134)
Experiment: Spectrophotometric reductase assay, consumption or production of NADPH at 340 nm
Format: biochemical
Description: Appropriate clones (as shown in FIGS. 4-7) expressing all four versions of above-mentioned proteins in E. coli were identified by appropriate antibiotic selection as described by the manufacturer (Novagen 441 Charmany Drive Madison, Wis., 53719, USA). Expressed protein bands of the predicted sizes were identified by analytical SDS poly acrylamide gel electrophoresis (Laemmli, U.K., Nature, 227, 680, 1970) to confirm the expression of desired protein. […] Protein obtained from the plasmid pMON63134 (FIG. 6) was chosen for assay work described below. Protein extracts were prepared by freeze thawing and sonication as described Cull and McHenry (Cull M and McHenry C. S. Methods in Enzymology 182, 147-153, 1990). Pellets were resuspended in an appropriate volume of either 50 mM Tris-HCl pH 7.4 250 mM NaCl and 500 μM EDTA with 0.05% CHAPS and 1 mM ABESF or 50 mM KH2PO4 pH-7.2 250 mM NaCl and 250 μM EDTA with 0.05% CHAPS and 1 mM ABESF, buffer. Crude extracts containing His-tagged protein were applied to equilibrated His-Trap (Pharmacia Piscataway, N.J.) columns and purified by standard procedures as described by the manufacturer of the columns. Steps included a 10 mM imidazole elution/wash and elution in 250 mM imidazole. As a result the Arabidopsis tagged protein was partially purified (approximately 85-90% by SDS-PAGE stained with Coomasie Blue). Purified samples were gel filtered into 50 mM KH2PO4 pH-7.2 250 mM NaCl and 250 μM EDTA, 10% glycerol and stored at −80° C. until use. Protein concentrations were 1.5 to 1.7 mg/mL, based on the method of Bradford (Bradford M, Anal Biochem, 72, 248, 1976 and Bio-Rad Laboratories Procedure bulletin 1123) with BSA standard (Bradford reagent and BSA was from Bio-Rad Laboratories Headquarters 1000 Alfred Nobel Drive Hercules, Calif. 94547). The assays described below used 10 or 15 uL of this solution (15 to 22 μg per reaction).
Spectrophotometric assays were used for determination of enzyme activities of purified proteins. Assays were based on earlier described methods (Portsteffen et al. Phyochemistry, 37, 391, 1994). […] Assays were performed in a Varian Cary 50 Bio spectrophotometer (Varian Instruments Inc. AA, ICP, UV, to Fluorescence Products 679 Springvale RoadMulgrave, Victoria 3170 Australia). All assays were run at 30° C. for 10 to 30 minutes in 1 mL volumes using 100 mM KH2PO4 pH 6.5, 250 μM EDTA or 50 mM KH2PO4 pH-7.2, 250 mM NaCl, and 250 μM EDTA as reaction buffer. If metals were added they were supplemented to reactions in cuvettes from 100 mM stocks of either ZnCl2 and or MgCl2. Substrates included those found in table 8. […] Controls contained no substrate to determine the background rate of consumption and degradation of NADPH. NADPH solutions were freshly made and checked by UV-vis for degradation. Enzyme solutions were supplemented with 1 mM MgCl2 and 1 mM Zn Cl2 which were at 1.5 to 1.7 mg/mL concentrations. The assays used 10 or 15 μl of this solution (ca. 15 to 22 μg per reaction). Stock solutions of the substrates (20 to 500 mM) were made up in a reaction buffer or as noted. Steroids solutions were made in 100% EtOH. From these stock solutions additions to the assays were made directly. Precipitation of steroids was observed. Thus, the soluble concentration of steroids in reaction mixture is not accurately known in each case. However, good estimate of substrate (sterol) concentration would be 100 to 200 μM for a saturated solution under these conditions. […] In addition to cell extract control, a substrate control was also employed because solutions of some substrates tested can have a lower pH at described assay conditions which may affect rates of NADPH degradation and enzyme activity under assay conditions.

T1 sequence (Q9ZW18 1-268): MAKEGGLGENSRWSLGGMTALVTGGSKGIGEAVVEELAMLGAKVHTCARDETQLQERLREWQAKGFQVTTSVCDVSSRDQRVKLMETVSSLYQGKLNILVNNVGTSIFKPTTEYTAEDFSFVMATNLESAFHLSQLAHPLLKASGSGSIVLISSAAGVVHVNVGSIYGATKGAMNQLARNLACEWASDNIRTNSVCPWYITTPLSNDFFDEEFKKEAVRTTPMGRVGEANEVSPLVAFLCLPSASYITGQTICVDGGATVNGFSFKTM

Compound: C[C@]12CCC(=O)CC1CCC1C2CC[C@]2(C)C(=O)CCC12 (stereo in doubt) [5α-androstane-3,17-dione]
- Activity (substrate) (100 μM): YES 100 μM

Compound: OCC1O[C@H](O)C(O)[C@@H](O)[C@@H]1O (stereo partly drawn) [D-Glucose]
- Activity (substrate) (25 mM): No 25 mM

Compound: O=C1OC(CO)[C@@H](O)[C@H](O)C1O (stereo partly drawn) [Glucono 1,5 lactone]
- Activity (substrate) (25 mM): No 25 mM

Compound: OCC(O)C(O)C(O)CO (stereo not drawn) [Arabinitol]
- Activity (substrate) (25 mM): No 25 mM

Compound: O=C1OC(CO)[C@H](O)C(O)C1O (stereo partly drawn) [δ-gluconolactone]
- Activity (substrate) (25 mM): No 25 mM

Compound: CN1C2CCC1CC(O)C2 (stereo not drawn) [Tropine]
- Activity (substrate) (1 and 10 mM): No retested with new enzyme 1 and 10 mM

Compound: CN1C2CCC1CC(=O)C2 [Tropinone]
- Activity (substrate) (1 and 10 mM): No retested with new enzyme 1 and 10 mM

Compound: acetone
- Activity (substrate) (65 mM): Yes
- Activity (substrate) (at lower concentrations than 65 mM): Much lower

Compound: isopropanol
- Activity (substrate) (68 mM, substrate for the reverse reaction): Yes 68 mM
- substrate quality compared with acetone (at same concentrations, reverse reaction): At high concentrations it is a substrate for the reverse reaction but at same concentrations is a poorer substrate than acetone indicating potential preference for the reductase activity under these conditions.

Compound: O=C(O)C(O)C(O)C(O)C(O)CO (stereo not drawn) [Potassium d-gluconate]
- Activity (substrate) (25 mM): No 25 mM

Compound: C[C@]12CCC(=O)C=C1CCC1C2CC[C@]2(C)C(=O)CCC12 (stereo partly drawn) [4-androstene-3,17-dione]
- Activity (substrate) (100 μM): YES 100 μM

Compound: OC[C@H]1O[C@@](CO)(O[C@H]2O[C@H](CO)[C@@H](O)[C@H](O)[C@H]2O)[C@@H](O)[C@@H]1O [Sucrose]
- Activity (substrate) (25 mM): No 25 mM

Compound: C=C1C[C@]23C[C@@]1(O)CC[C@H]2[C@@]12C=C[C@H](O)[C@@](C)(C(=O)O1)[C@H]2[C@@H]3C(=O)O [Gibberellic Acid (GA3)]
- Activity (substrate) (1 and 10 mM): No 1 and 10 mM
